Laboratory results reported in patent publication US20200308622A1, “Phage-Mediated Molecular Detection Methods and Related Aspects” (United States of America as represented by the Secretary of …, priority 2017, published 2020).

How the values were obtained:
[1] = system: MSSA strain RN4220; assay: PMMD (phage K RT-qPCR) antibiotic sensitivity assay, MSSA; type: cell-based, Staphylococcus aureus; settings: cefoxitin 4 μg/ml, with vs without fox, phage K gp125 RNA qPCR
Experimental: (§1) Staphylococcus aureus (S. aureus) bacterial cultures were grown for one hour in LB-Lennox (10 g/l Tripone, 5 g/l yeast extract and 5 g/l NaCl) media at 37° C. with strong aeration (225 rpm shaking). For antibiotic sensitivity assays the cultures were grown for one or three hours, as indicated, and cefoxitin (Sigma-Aldrich) was added at a final concentration of 4 μg/ml using a 1,000× stock in water.
(§2) The reactions were performed by mixing 50 μl of S. aureus bacterial cultures (˜2×10^9 cfu/ml) and 50 μl of a phage K lysate ( about 5×10^8 pfu/ml) or 1 μl of CsCl gradient purified phage K (about 1×10^10 pfu/ml). The mixtures were incubated on ice for 3-4 minutes and the infections were allowed to proceed for 10 minutes, unless indicated otherwise, at 37° C. with shaking (400 rpm). Five minutes prior to the end of the incubation, lysostaphin (Sigma-Aldrich) w as added from a 20× stock (2 mg/ml).
(§3) Single-step fluorescent quantitative or real-time PCR (qPCR) was done with Luna one-step RT-qPCR kit (NEB) using low profile clear 0.2 ml PCR tubes and optical ultraclear flat caps (BioRad). The reactions were run in a CFX96 real-time PCR detection system (BioRad) with CFX Manager 3. Quantification cycle values (Cqs) were auto calculated by the software, and ranged front about […]. […] 10 minutes/35× (95° C. 10 seconds, 60° C. 30 seconds, plate read). […]

[2] = system: MRSA strain SA-1012.COI; assay: PMMD (phage K RT-qPCR) antibiotic sensitivity assay, MRSA; type: cell-based, Staphylococcus aureus; settings: cefoxitin 4 μg/ml, with vs without fox, phage K gp125 RNA qPCR
Experimental: as §1, §2, §3

`CO[C@@]1(NC(=O)Cc2cccs2)C(=O)N2C(C(=O)O)=C(COC(N)=O)CS[C@@H]21` [fox, cefoxitin] was tested, and the “increase of Cq values on addition of fox in the media” value ([1]; one hour of incubation) was “about 1.5”, the “increase of Cq values on addition of fox in the media” value ([1]; three hours of incubation) was “about 11.5” and the “Cq increase in the presence of fox” value ([2]; one hour of incubation) was “about 1.0”. The “Cq increase in the presence of fox” value ([2]; three hours of incubation) was “about 0.0”.
